Results: ChEMBL document CHEMBL3797052 (Eur J Med Chem, 2016)

Key:
Assay type in all cases: functional
[1] = Antiproliferative activity against human Hs 578T cells assessed as cell growth at 10^-5 M after 48 hrs by sulforhodamine B assay; details: read-out: Activity
[2] = Antiproliferative activity against human COLO205 cells assessed as cell growth at 10^-5 M after 48 hrs by sulforhodamine B assay; details: COLO 205, 48 h, read-out: Activity
[3] = Antiproliferative activity against human LOXIMVI cells assessed as cell growth at 10^-5 M after 48 hrs by sulforhodamine B assay; details: LOX IMVI, read-out: Activity
[4] = Antiproliferative activity against human UACC62 cells assessed as cell growth at 10^-5 M after 48 hrs by sulforhodamine B assay; details: UACC-62, 48 h, read-out: Activity
SK-MEL-2 = experiment: Antiproliferative activity against human SK-MEL-2 cells assessed as cell growth at 10^-5 M after 48 hrs by sulforhodamine B assay; details: SK-MEL-2, 48 h, read-out: Activity
NCI-H322M = experiment: Antiproliferative activity against human NCI-H322M cells assessed as cell growth at 10^-5 M after 48 hrs by sulforhodamine B assay; details: read-out: Activity
[5] = Cytotoxicity against human HCT116 cells assessed as growth inhibition at 10 uM after 2 days by MTT assay; details: HCT-116, 48 h, read-out: GI
KM12 = experiment: Antiproliferative activity against human KM12 cells assessed as cell growth at 10^-5 M after 48 hrs by sulforhodamine B assay; details: KM12, 48 h, read-out: Activity
A498 = experiment: Antiproliferative activity against human A498 cells assessed as cell growth at 10^-5 M after 48 hrs by sulforhodamine B assay; details: A498, 48 h, read-out: Activity
T47D = experiment: Antiproliferative activity against human T47D cells assessed as cell growth at 10^-5 M after 48 hrs by sulforhodamine B assay; details: read-out: Activity
SK-MEL-28 = experiment: Antiproliferative activity against human SK-MEL-28 cells assessed as cell growth at 10^-5 M after 48 hrs by sulforhodamine B assay; details: SK-MEL-28, 48 h, read-out: Activity
[6] = Antiproliferative activity against human HL-60(TB) cells assessed as cell growth at 10^-5 M after 48 hrs by sulforhodamine B assay; details: HL-60, 48 h, read-out: Activity
HT-29 = experiment: Antiproliferative activity against human HT-29 cells assessed as cell growth at 10^-5 M after 48 hrs by sulforhodamine B assay; details: HT-29, 48 h, read-out: Activity
[7] = Antiproliferative activity against human HOP62 cells assessed as cell growth at 10^-5 M after 48 hrs by sulforhodamine B assay; details: HOP-62, 48 h, read-out: Activity
[8] = Cytotoxicity against human SKBR3 cells assessed as growth inhibition at 100 uM after 2 days by MTT assay; details: SK-BR-3, 48 h, read-out: GI
[9] = Antiproliferative activity against human HCC2998 cells assessed as cell growth at 10^-5 M after 48 hrs by sulforhodamine B assay; details: HCC 2998, 48 h, read-out: Activity
[10] = Antiproliferative activity against human SF539 cells assessed as cell growth at 10^-5 M after 48 hrs by sulforhodamine B assay; details: SF-539, 48 h, read-out: Activity
Malme-3M = experiment: Antiproliferative activity against human MALME-3M cells assessed as cell growth at 10^-5 M after 48 hrs by sulforhodamine B assay; details: read-out: Activity
MDA-MB-435 = experiment: Antiproliferative activity against human MDA-MB-435 cells assessed as cell growth at 10^-5 M after 48 hrs by sulforhodamine B assay; details: MDA-MB-435, 48 h, read-out: Activity
[11] = Antiproliferative activity against human HCT116 cells assessed as cell growth at 10^-5 M after 48 hrs by sulforhodamine B assay; details: HCT-116, 48 h, read-out: Activity
[12] = Cytotoxicity against human SKBR3 cells assessed as growth inhibition at 10 uM after 2 days by MTT assay; details: SK-BR-3, 48 h, read-out: GI
[13] = Antiproliferative activity against human Caki1 cells assessed as cell growth at 10^-5 M after 48 hrs by sulforhodamine B assay; details: CAKI-1, 48 h, read-out: Activity
[14] = Antiproliferative activity against human HCT15 cells assessed as cell growth at 10^-5 M after 48 hrs by sulforhodamine B assay; details: HCT-15, 48 h, read-out: Activity
K562 = experiment: Antiproliferative activity against human K562 cells assessed as cell growth at 10^-5 M after 48 hrs by sulforhodamine B assay; details: K562, 48 h, read-out: Activity
[15] = Antiproliferative activity against human RPMI8226 cells assessed as cell growth at 10^-5 M after 48 hrs by sulforhodamine B assay; details: RPMI-8226, 48 h, read-out: Activity
NCI-H522 = experiment: Antiproliferative activity against human NCI-H522 cells assessed as cell growth at 10^-5 M after 48 hrs by sulforhodamine B assay; details: NCI-H522, 48 h, read-out: Activity
[16] = Antiproliferative activity against human OVCAR8 cells assessed as cell growth at 10^-5 M after 48 hrs by sulforhodamine B assay; details: OVCAR-8, 48 h, read-out: Activity
[17] = Antiproliferative activity against human SW620 cells assessed as cell growth at 10^-5 M after 48 hrs by sulforhodamine B assay; details: SW-620, 48 h, read-out: Activity
[18] = Antiproliferative activity against human UO31 cells assessed as cell growth at 10^-5 M after 48 hrs by sulforhodamine B assay; details: UO-31, 48 h, read-out: Activity
[19] = Antiproliferative activity against human OVCAR4 cells assessed as cell growth at 10^-5 M after 48 hrs by sulforhodamine B assay; details: OVCAR-4, 48 h, read-out: Activity
[20] = Antiproliferative activity against human HOP92 cells assessed as cell growth at 10^-5 M after 48 hrs by sulforhodamine B assay; details: HOP-92, 48 h, read-out: Activity
[21] = Antiproliferative activity against human SNB19 cells assessed as cell growth at 10^-5 M after 48 hrs by sulforhodamine B assay; details: SNB-19, 48 h, read-out: Activity
[22] = Antiproliferative activity against human SF268 cells assessed as cell growth at 10^-5 M after 48 hrs by sulforhodamine B assay; details: SF-268, 48 h, read-out: Activity
MDA-MB-468 = experiment: Antiproliferative activity against human MDA-MB-468 cells assessed as cell growth at 10^-5 M after 48 hrs by sulforhodamine B assay; details: MDA-MB-468, 48 h, read-out: Activity
[23] = Antiproliferative activity against human BT549 cells assessed as cell growth at 10^-5 M after 48 hrs by sulforhodamine B assay; details: BT-549, 48 h, read-out: Activity
[24] = Antiproliferative activity against human DU145 cells assessed as cell growth at 10^-5 M after 48 hrs by sulforhodamine B assay; details: DU-145, 48 h, read-out: Activity
[25] = Cytotoxicity against human HCT116 cells assessed as growth inhibition at 100 uM after 2 days by MTT assay; details: HCT-116, 48 h, read-out: GI

CNC(=O)c1cc(Oc2ccc3nc(NC(=O)c4cccc(F)n4)sc3c2)ccn1
growth at 10 µM [1]: 92.7% | growth at 10 µM [2]: 105% | growth at 10 µM [3]: 84.8% | growth at 10 µM [4]: 78% | growth at 10 µM (SK-MEL-2): 110% | growth at 10 µM (NCI-H322M): 92.8% | inhibition of growth at 10 µM [5]: 10.8% | growth at 10 µM (KM12): 87.5% | growth at 10 µM (A498): 72.6% | growth at 10 µM (T47D): 84.8% | growth at 10 µM (SK-MEL-28): 105% | growth at 10 µM [6]: 78.2% | growth at 10 µM (HT-29): 96% | growth at 10 µM [7]: 90% | inhibition of growth at 100 µM [8]: 89.4% | growth at 10 µM [9]: 114% | growth at 10 µM [10]: 96.6% | growth at 10 µM (Malme-3M): 98.2% | growth at 10 µM (MDA-MB-435): 100% | growth at 10 µM [11]: 80.5% | inhibition of growth at 10 µM [12]: 12.5% | growth at 10 µM [13]: 83% | growth at 10 µM [14]: 92.2% | growth at 10 µM (K562): 77.5% | growth at 10 µM [15]: 70.4% | growth at 10 µM (NCI-H522): 69.8% | growth at 10 µM [16]: 85% | growth at 10 µM [17]: 105% | growth at 10 µM [18]: 67.1% | growth at 10 µM [19]: 76% | growth at 10 µM [20]: 81.4% | growth at 10 µM [21]: 88.6% | growth at 10 µM [22]: 89.6% | growth at 10 µM (MDA-MB-468): 71.3% | growth at 10 µM [23]: 74.6% | growth at 10 µM [24]: 99.2% | inhibition of growth at 100 µM [25]: 55.5%
